Activity calls are given as the source filed them. The rule behind the calls is not given here.
Tests used:
Vero = assay: Cytotoxicity against african green monkey Vero cells by SRB assay; format: cell-based; settings: chlorocebus sabaeus
KB = assay: Cytotoxicity against human KB cells up to 38 uM by SRB assay; format: functional, cell-based
BC = assay: Cytotoxicity against human BC cells up to 38 uM by SRB assay; format: functional, cell-based
NCI-H187 = assay: Cytotoxicity against human NCI-H187 cells up to 38 uM by SRB assay; format: functional, cell-based
Plasmodium falciparum = assay: Antimalarial activity against Plasmodium falciparum K1 infected human A+ erythrocytes by [3H]hypoxanthine uptake; format: functional, organism-based

**Q.** With `CC[C@@H](C)[C@H](N)C(=O)N(C)[C@H](Cc1ccccc1)C(=O)N[C@@H](CC(C)C)C(=O)Nc1ccccc1C(=O)O` [HIRSUTELLIC ACID A] as the compound, how does the Activity (Vero) read?
**A.** Non-toxic

**Q.** What about the Activity (KB) of the same compound?
**A.** inactive

**Q.** And the Activity (BC)?
**A.** inactive

**Q.** And the Activity (NCI-H187)?
**A.** inactive

**Q.** And the IC50 (Plasmodium falciparum)?
**A.** 8 µM
